According to paper PMC10223552 (Pharmaceuticals, 2023):
pIC50: −log10 of the molar value. Several values for one entry are separate records, joined by “and”; a condition that tells them apart may be missing. Equal entries are not always repeated.

Legend:
[1] = test system: BJ normal skin fibroblast; assay: MTT cytotoxicity test, BJ normal fibroblasts; type: cell-based; conditions: Homo sapiens, 48 h treatment
Procedure: The studies were conducted on two breast cancer cell lines—MCF-7 (ER+PR+/HER2-negative) and MDA-MB-231 (ER/PR/HER2-negative) and human normal fibroblast cell line BJ. The cell lines were obtained from American Type Culture Collection (ATCC, Manassas, VA, USA) and were cultured at 37 °C in the presence of 5% CO2 in the atmosphere. The culture media (Eagle’s Minimum Essential Medium for MCF-7 and BJ, Leibovitz’s L-15 Medium for MDA-MB-231, Corning, NY, USA), was supplemented with 10% fetal bovine serum. The cell’s morphology was examined under a Nikon Eclipse Ti inverted phase contrast microscope (Nikon, Tokyo, Japan). The authenticity of tested cell lines was verified by short tandem repeat (STR) genotyping in the Department of Forensic Medicine (Medical University of Lublin, Lublin, Poland).
Cell viability based on metabolic activity was evaluated with the MTT colorimetric test based on the ability of viable cells to cause the transformation of tetrazolium salts MTT (3-[4,5-dimethylthiazol-2-yl]-2,5)diphenyltetrazolium bromide) into purple formazan, by cellular dehydrogenases. The cells were seeded into 96-well plates at a concentration of 2 × 10^5 cells/mL. Once 70–80% confluency was reached, tested compounds were added: ADS10310 and ADS1017 in concentrations ranging from 1 to 250 µM or DMSO as the vehicle in control cultures for the next 48 h (max. DMSO concentration <0.5%). Doxorubicin was used for comparison as the standard chemotherapeutic agent used in breast cancer treatment. After 48 h of incubation cell cultures were supplemented with 20 µL of 5 mg/mL MTT (Thermofisher, Waltham, MA, USA) stock in PBS (Corning, NY, USA), and the incubation was continued for 4 h at 37 °C. […] The solution absorbency was measured at 570 nm, using a PowerWave™ xs microplate spectrophotometer (BioTek Instruments, Winooski, VT, USA). […] IC50 values were determined using the AAT Bioquest IC50 calculator (AAT Bioquest, Inc. Quest Graph™ EC50 Calculator. https://www.aatbio.com/tools/ec50-calculator) (accessed on 6 September 2022).

[2] = molecular target: T1, gpH3R (Cavia porcellus, UniProt Q9JI35); assay: Ex vivo assay for histamine H3R antagonists on electrically stimulated guinea pig ileum
T1 construct: from tissue; host or cells: isolated distal ileum of male guinea pigs
T1 sequence (Q9JI35 whole entry): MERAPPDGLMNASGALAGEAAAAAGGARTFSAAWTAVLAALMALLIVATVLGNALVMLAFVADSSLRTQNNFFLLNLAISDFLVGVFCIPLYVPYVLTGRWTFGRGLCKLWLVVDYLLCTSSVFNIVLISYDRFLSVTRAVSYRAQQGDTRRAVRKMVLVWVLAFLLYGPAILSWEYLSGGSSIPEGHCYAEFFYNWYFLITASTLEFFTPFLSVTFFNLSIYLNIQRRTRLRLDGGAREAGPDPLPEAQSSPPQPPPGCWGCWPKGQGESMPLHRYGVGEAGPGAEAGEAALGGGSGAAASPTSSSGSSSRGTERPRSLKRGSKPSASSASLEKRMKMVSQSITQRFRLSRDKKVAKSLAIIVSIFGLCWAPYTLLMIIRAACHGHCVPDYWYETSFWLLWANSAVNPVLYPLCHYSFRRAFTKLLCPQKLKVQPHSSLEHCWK
Procedure: All newly synthesized compounds were evaluated as H3R antagonists/inverse agonists on the guinea pig ileum (gpH3R), stimulated electrically to induce contractions. The distinct affinity profile and species-dependent pharmacology of H3R ligands are known. […] Therefore, to compare species differences, all newly synthesized compounds were subjected to radioligand displacement assay in membrane fractions of HEK-293 cells stably expressing hH3R.
Ex vivo assay for histamine H3R and H1R antagonists were measured on the isolated guinea pig ileum stimulated to contractions by histamine. The pA2-values were calculated according to Arunlakshana and Schild. The radioligand-displacement binding assay was performed in membrane fractions of HEK-293 cells stably expressing hH3R. Cell cultivation and membrane preparation was performed according to Kottke et al.. The Ki values were calculated from the IC50 values using the Cheng–Prusoff equation [37]. The statistical calculations were performed on –log(Ki). […] The inhibitory activities of novel ADS compounds were assessed in spectrophotometric Ellman’s assay using AChE from electric eel (eeAChE) and BuChE from horse serum (eqBuChE).
3. Pharmacological assay results.
3.1. Ex vivo assay for histamine H3R receptor antagonists on guinea pig ileum.
Male guinea pigs, weighing 300-400 g were euthanized by a blow to the neck. Following this, a 20-30 cm length of the distal ileum, apart from the terminal 5 cm was rapidly removed and placed in phosphate buffer at room […]
indomethacin (Sigma-Aldrich, St. Louis, MO, USA) (1·10-6 mol/L). The intraluminal content was rinsed and the isolated intestine was cut into 1.5-2 cm segments. The preparations were mounted between two platinum electrodes […]
load of 1.0 g (Hugo Sachs Hebel-Messvorsatz (Tl-2)/HF-modem; Hugo Sachs Elektronik, Hugstetten, Germany) connected to a pen recorder (Kipp & Zonen BD41, Delft, Holland). During an equilibration period of 60 min, the Krebs buffer was changed every 10 min. The preparations were then continuously stimulated at 15-20 V at a frequency of 0.1 Hz for a duration of 0.5 ms, with rectangular-wave electrical pulses (Grass Stimulator S-88; Grass Instruments Co., Quincy, Massachusetts, USA). […] Five minutes […]
before (R)-(−)-α-methylhistamine (RAMH) (Toronto Research Chemicals Inc., North York, Canada), […]
added. The first cumulative concentration-response curve was determined to RAMH (10 nM – 10 mM) at an […]
The second to fourth curve was measured against increasing antagonist concentration (incubation time 20 min). The pA2-values were calculated according to Arunlakshana and Schild. [Br J Pharmacol Chemother. […] Statistical analysis was carried out with the Students’ t-test. In all tests, a p<0.05 was considered statistically significant. The pA2 values were compared with the affinity of thioperamide (Sigma-Aldrich, St. Louis, MO, USA).

[3] = test system: MDA-MB-231 breast cancer cells; assay: cells; type: cell-based; conditions: Homo sapiens, MDA-MB-231, 48 h, read-out: MTT IC50 MDA-MB-231
Procedure: (§1) The cell lines were obtained from American Type Culture Collection (ATCC, Manassas, VA, USA) and were cultured at 37 °C in the presence of 5% CO2 in the atmosphere. […] The cell’s morphology was examined under a Nikon Eclipse Ti inverted phase contrast microscope (Nikon, Tokyo, Japan). The authenticity of tested cell lines was verified by short tandem repeat (STR) genotyping in the Department of Forensic Medicine (Medical University of Lublin, Lublin, Poland).
(§2) Cell viability based on metabolic activity was evaluated with the MTT colorimetric test based on the ability of viable cells to cause the transformation of tetrazolium salts MTT (3-[4,5-dimethylthiazol-2-yl]-2,5)diphenyltetrazolium bromide) into purple formazan, by cellular dehydrogenases. The cells were seeded into 96-well plates at a concentration of 2 × 10^5 cells/mL. […] Doxorubicin was used for comparison as the standard chemotherapeutic agent used in breast cancer treatment. After 48 h of incubation cell cultures were supplemented with 20 µL of 5 mg/mL MTT (Thermofisher, Waltham, MA, USA) stock in PBS (Corning, NY, USA), and the incubation was continued for 4 h at 37 °C. Next, the medium with MTT was removed, and obtained crystals were dissolved in 200 µL of DMSO (dimethyl sulfoxide, Avantor, Gliwice, Poland). The solution absorbency was measured at 570 nm, using a PowerWave™ xs microplate spectrophotometer (BioTek Instruments, Winooski, VT, USA). The experiment was performed three times with three replicates for each concentration of tested compounds.

[4] = test system: MCF-7 breast cancer cells; assay: cells; type: cell-based; conditions: for pIC50: Homo sapiens, MCF7, 48 h, read-out: MTT IC50 MCF-7
Procedure: as §1, §2

Compound	pIC50 [1]	gpH3R pA2 ± sem ([2]; isolated guinea pig ileum, vs RAMH, 20 min)	pIC50 [3]	pIC50 [4]	Kb [2] [µM]	Cell viability (%) ± SD, MCF-7 ([4]; MTT, 48 h, concentrations among 10-125 μM, column of each value cannot be told)
N=C(N)N(CCCCN1CCN(CCCCCCCOc2ccccc2)CC1)Cc1ccccc1 [ADS1017]	4.41	8.21 ± 0.15	4.70	4.61	–	–
Cl.Cl.N=C(NCCCCc1ccc(Cl)cc1)NCCCCN1CCCCC1 [ADS10310]	3.64	–	3.94	4.08	0.0191	79.57±1.33% and 60.51±1.86% and 57.12±1.54% and 44.21±3.24% and 39.79±2.76%
